Reference: US20120302569A1, “PHENYL-THIAZOLYL INHIBITORS OF PRO-MATRIX METALLOPROTEINASE ACTIVATION” (priority 2011, published 2012)

Target: T1, MMP9 mediated gelatinase activity (Rattus norvegicus, UniProt P50282)
T1 construct: from tissue; host or cells: liver cryosections of female Lewis rats
Assay: In situ zymography of gelatinase activity in livers of SCW-induced rats
Type: in vivo
Design: reduction of liver gelatinase activity: reference not given here
Conditions: for Intensity Mean / Intensity Rat 1 / Intensity Rat 2 / Intensity Rat 3: Day 25-28, liver
Source text: In situ zymography provides an alternative approach to assess active MMP9 in tissues (J Histochem Cytochem; 2004; 52:711-722). Tissue sections are overlain with fluorescein-conjugated gelatin wherein the conjugation is sufficiently dense to cause the fluorescein to be dye-quenched (DQ). Proteolytic degradation of the DQ-gelatin releases the fluorescein from the quenching effect giving rise to bright green fluorescence at the site of degradation. Because in situ zymography requires the use of frozen sections, calcified tissues are problematic. However, an additional feature of the SCW arthritis model is the development of hepatic granulomatous disease (J Immunol; 1986; 137:2199-2209), and MMP9 reportedly plays a role in macrophage recruitment in the granulomas response to mycobacteria (Infect Immun; 2006; 74:6135-6144). Consequently, granulomatous livers from SCW-treated rats were assessed for active MMP9 by in situ zymography.
As described above, Female Lewis (LEW/N) rats, 5-6 weeks of age (80-100 g) were injected (i.p.) with saline or SCW PG-PS. On day 28, when the granulomatous response was well established, animals were sacrificed and livers were frozen in OCT cryo-sectioning medium and 10 μm sections were cut on a Cryome HM 500 M cryotome and mounted on glass microscope slides. Sections were air dried briefly. MMP9 was confirmed as the source of the gelatinase activity in the liver by treating liver sections with monoclonal antibodies directed against the active site of the two major gelatinases MMP9 and MMP2. Liver sections overlain with 50 μL of 100 μg/mL neutralizing mouse monoclonal antibodies directed against MMP9 (Calbiochem, clone 6-6B), or MMP2 (Millipore, clone CA-4001), or with PBS for 1 hr at room temperature. Tissues were rinsed once with PBS, blotted, and briefly air dried and then overlain with DQ-gelatin (Invitrogen) dissolved to 1 mg/mL in deionized water and then diluted 1:10 in 1% wt/vol low gelling point agarose type VII (Sigma) in PBS. The sections were covered with coverslips, incubated in the dark at room temperature for 20 min, and imaged on an Olympus IX80 inverted microscope fitted with fluorescence optics, using SlideBook™ imaging software (Intelligent Imaging Innovations, Inc., Philadelphia, Pa.; version 5.0). Fluorescence intensity was determined (Table 8). When compared to a saline-treated rat, gelatinase activity was abundantly expressed in granulomatous liver sections obtained from a rat with SCW arthritis.
Next, liver in situ zymography was used to assess the relative presence of active MMP9 in rats dosed with vehicle vs. Compound α. Female Lewis (LEW/N) rats, 5-6 weeks of age (80-100 g) were injected (i.p.) with saline or SCW PG-PS. Commencing on day 25, randomized groups of rats (n=3 rats/group) received vehicle or 20 or 50 mg/kg Compound α BID by oral gavage.
Vehicle consisted of an aqueous mixture containing 2% (v:v) N-methylpyrrolidone, 5% (v:v) glycerine, and 20% (w:v) captisol. Treatment continued daily through the morning of day 28. Four hrs after the AM dose on day 28, rats were sacrificed and livers assessed for active MMP9 by in situ zymography (Table 9). Gelatinase activity was increased markedly in SCW-induced rats, but activity was reduced by approximately 80% in animals treated with 50 mg/kg Compound α.

T1 sequence (P50282 108-708): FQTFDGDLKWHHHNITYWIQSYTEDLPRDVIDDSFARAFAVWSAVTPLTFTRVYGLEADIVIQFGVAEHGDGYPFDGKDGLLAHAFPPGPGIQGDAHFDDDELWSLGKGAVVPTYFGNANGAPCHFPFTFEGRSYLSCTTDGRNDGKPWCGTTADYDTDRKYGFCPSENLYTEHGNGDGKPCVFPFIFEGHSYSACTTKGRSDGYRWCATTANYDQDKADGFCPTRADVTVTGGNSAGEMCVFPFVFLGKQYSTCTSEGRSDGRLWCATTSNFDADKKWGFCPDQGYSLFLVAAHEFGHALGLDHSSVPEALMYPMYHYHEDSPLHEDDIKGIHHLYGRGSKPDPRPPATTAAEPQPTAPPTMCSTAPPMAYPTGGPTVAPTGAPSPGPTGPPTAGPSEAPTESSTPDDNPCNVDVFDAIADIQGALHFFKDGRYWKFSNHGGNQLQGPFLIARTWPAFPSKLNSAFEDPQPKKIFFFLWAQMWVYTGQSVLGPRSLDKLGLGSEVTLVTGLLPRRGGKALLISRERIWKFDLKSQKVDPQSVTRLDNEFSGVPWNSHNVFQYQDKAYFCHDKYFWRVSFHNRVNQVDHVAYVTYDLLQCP

## Cc1nc(C)c(-c2csc(Nc3cc(S(N)(=O)=O)ccc3OC(C)C)n2)s1 [Compound α, 3-(2′,4′-Dimethyl-[4,5′]bithiazolyl-2-ylamino)-4-isopropoxy-benzenesulfonamide.HBr]
20 mg/kg BID oral
  Intensity Mean: 55.2 RLU × 10^6
  Intensity Rat 1: 43.0 RLU × 10^6
  Intensity Rat 2: 69.0 RLU × 10^6
  Intensity Rat 3: 53.7 RLU × 10^6
50 mg/kg BID oral, Day 25-28
  reduction of liver gelatinase activity: approximately 80%
50 mg/kg BID oral
  Intensity Mean: 11.1 RLU × 10^6
  Intensity Rat 1: 3.2 RLU × 10^6
  Intensity Rat 2: 25.6 RLU × 10^6
  Intensity Rat 3: 4.5 RLU × 10^6
